Results published in patent US5849536A, “Cloning and production of human von willebrand factor GPIb binding domain polypeptides and methods of using same” (Bio-Technology General Corp., priority 1994, dated 1998).

System: rat platelet rich plasma (PRP)
Assay: vWF-dependent platelet aggregation assay in rat platelet rich plasma
Type: cell-based
Settings: ristocetin up to 5.0 mg/ml, no additional agent
Protocol: This is a standardized von Willebrand Factor (vWF)-dependent aggregation assay using human or rat platelet rich plasma (PRP). The addition of various concentrations of unfractionated Bothrops jararaca venom (BJV), which includes botrocetin and an additional thrombin-like component, or ristocetin results in an aggregatory response in the absence of any additional agent. Using ristocetin (1.5 mg/ml) as the agonist 43 μg/ml VCL abolished the aggregation of human PRP.

ristocetin
aggregation of rat PRP induced by the agonist: did not cause measurable aggregation
